Test results published in publication PMC9303812, “Asymmetrically Substituted m‐Terphenyl Phosphates Inhibit the Transcription Factor STAT5a” (Chembiochem, 2021).
Read-outs that look alike come from different tables or passages of the source.

Tests used:
STAT3 = STAT3 (Homo sapiens, UniProt P40763); experiment: Fluorescence polarization (FP) binding assay, STAT3
Procedure: Table S1: Activities of test compounds against STAT5a and STAT5b in FP assays . Experiments were carried out in triplicate (n = 3) unless stated otherwise. n/a: not applicable.
[a]data taken from the literature.[1]
(§1) Ki values were calculated from IC50 values using the published equation.[2] […]
(§2) Table S2: Activities of 12 against STAT5 proteins in FP assays.
(§3) Fluorescence polarization assays
(§4) Fluorescence polarization assays were essentially carried out as previously described.[1] These assays quantitate to which extent a test compound is able to interfere with binding between a STAT protein and a fluorescein-labeled phosphotyrosine-containing peptide, which is known to bind to the SH2 domain of the respective STAT protein. The following protein […]
(§5) concentrations were used: 100 nM for STAT1, 150 nM for STAT3, 30 nM for STAT4, 180 nM for STAT5a, 90 nM for STAT5b and 105 nM for STAT6. All peptides were used at a concentration of 10 nM. The following peptides were used: 5 -carboxyfluorescein -GpYDKPHVL for STAT1; 5-carboxyfluorescein -GpYLPQTV-NH2 for STAT3; 5-carboxyfluorescein-GpYLPQNID-OH for STAT4; 5-carboxyfluorescein-GpYLVLDKW for STAT5a/b, and 5-carboxyfluorescein-GpYVPWQDLI-OH for STAT6. As a buffer system, 10 mM Tris (pH 8.0), 50 mM NaCl, 1 mM EDTA, 1 mM DTT, 0.1 % Nonidet P-40 substitute, and 2 % DMSO in water was used. All compounds tested were incubated for 1 h with the protein. Subsequently, the fluorescein-labeled peptide was added and the fluorescence polarization was measured with an Infinite F500 plate reader (Tecan) after another hour. IC50 values were converted to Ki-values using the published equation.[2]

STAT4 = molecular target: T1, STAT4 (Homo sapiens, UniProt Q14765); experiment: Fluorescence polarization (FP) binding assay, STAT4
T1 sequence (Q14765 1-748): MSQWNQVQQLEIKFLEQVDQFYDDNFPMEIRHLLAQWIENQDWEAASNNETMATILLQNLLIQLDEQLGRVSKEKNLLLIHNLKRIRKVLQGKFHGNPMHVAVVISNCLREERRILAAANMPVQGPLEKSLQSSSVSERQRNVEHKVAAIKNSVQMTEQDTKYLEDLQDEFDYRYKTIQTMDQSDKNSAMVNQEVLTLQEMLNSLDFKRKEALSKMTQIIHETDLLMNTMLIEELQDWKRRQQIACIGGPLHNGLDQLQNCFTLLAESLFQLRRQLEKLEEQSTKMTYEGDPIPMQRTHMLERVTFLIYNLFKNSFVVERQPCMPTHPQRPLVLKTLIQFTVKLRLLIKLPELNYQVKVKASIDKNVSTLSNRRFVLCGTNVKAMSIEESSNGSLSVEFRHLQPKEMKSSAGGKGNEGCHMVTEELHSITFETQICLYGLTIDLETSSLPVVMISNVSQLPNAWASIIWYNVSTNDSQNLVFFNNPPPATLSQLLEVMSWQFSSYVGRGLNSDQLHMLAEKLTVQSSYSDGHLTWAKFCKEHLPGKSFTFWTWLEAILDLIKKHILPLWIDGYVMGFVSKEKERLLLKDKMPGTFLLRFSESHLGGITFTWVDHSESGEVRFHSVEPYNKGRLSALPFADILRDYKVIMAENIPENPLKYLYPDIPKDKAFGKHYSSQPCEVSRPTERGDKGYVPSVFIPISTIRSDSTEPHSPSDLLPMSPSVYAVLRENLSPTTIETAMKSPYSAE
Procedure: as §1, §2, §3, §4
as §5, with “equation.[2] […]” for “equation.[2]”
3:2 solution was added . The solution was degassed by applying ultrasonic under vacuum for one minute four times. 14 mg of Pd(PPh3)4 (12 µmol, 5 mol %) were added and the solution was refluxed overnight. After cooling down, the mixture was extracted with ethyl acetate, washed with brine and dried over Na2SO4. The crude product was purified by flash column […]
Method 2: Synthesis of dibenzylphosphate esters
The corresponding phenol (1 eq.) was dissolved in 10 ml/mmol MeCN or DMF and CCl4 (5 eq.), DIPEA (2 eq.) and DMAP (0.1 eq.) were added. After cooling down to 0°C, dibenzyl phosphite (1.5 eq.) was added dropwise and stirring was continued at the same temperature. […]

STAT3, sequence (P40763 whole entry, species assumed): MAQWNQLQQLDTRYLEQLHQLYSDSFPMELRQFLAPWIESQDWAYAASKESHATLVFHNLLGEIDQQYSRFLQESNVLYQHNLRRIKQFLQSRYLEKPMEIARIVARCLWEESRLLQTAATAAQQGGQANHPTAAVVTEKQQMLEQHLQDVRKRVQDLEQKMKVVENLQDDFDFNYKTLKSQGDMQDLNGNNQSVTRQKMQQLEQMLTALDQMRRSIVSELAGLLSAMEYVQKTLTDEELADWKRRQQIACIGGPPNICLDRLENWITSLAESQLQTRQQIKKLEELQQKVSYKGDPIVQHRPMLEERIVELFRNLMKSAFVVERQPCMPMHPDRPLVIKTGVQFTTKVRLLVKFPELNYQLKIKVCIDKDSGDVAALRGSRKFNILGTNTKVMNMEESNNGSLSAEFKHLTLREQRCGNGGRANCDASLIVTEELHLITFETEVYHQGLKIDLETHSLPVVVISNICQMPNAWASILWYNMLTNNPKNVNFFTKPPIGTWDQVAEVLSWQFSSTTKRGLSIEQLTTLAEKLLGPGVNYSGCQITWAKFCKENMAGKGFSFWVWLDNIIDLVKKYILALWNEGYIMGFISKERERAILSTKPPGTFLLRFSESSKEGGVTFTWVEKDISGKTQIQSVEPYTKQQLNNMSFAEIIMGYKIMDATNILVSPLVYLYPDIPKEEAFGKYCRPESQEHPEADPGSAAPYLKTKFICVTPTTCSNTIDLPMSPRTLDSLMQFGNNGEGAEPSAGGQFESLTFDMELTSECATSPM

IC50 (STAT3; FP assay) | Ki (STAT3; FP assay, Ki calculated from IC50 (n=3)) | IC50 (STAT4; FP assay) | Ki (STAT4; FP assay, Ki calculated from IC50 (n=3), read-out: STAT4 Ki) | Structure (SMILES) | inhibition at 200 µM (STAT3; read-out: STAT3 inhibition at 200 μM) | Ki (STAT4)
 |  |  |  | COc1cc(-c2cc(OP(=O)(O)O)cc(-c3cc(F)c(F)c(F)c3)c2)cc(OC)c1OC [6 b] | 25 ± 3% | 39.7 ± 3 µM
145 ± 6.8 µM | 71.7 ± 3.4 µM | 99.3 ± 8 µM | 49.2 ± 4 µM | COc1cc(-c2cc(-c3cc(F)c(F)c(F)c3)cc(C(F)P(=O)(O)O)c2)cc(OC)c1OC (stereo not drawn) [compound 12] |  | 
